Laboratory results from article PMC10102062, “Effects of DPTQ, a novel positive allosteric modulator of the dopamine D1 receptor, on spontaneous eye blink rate and spatial working memory in the nonhuman primate” (Psychopharmacology, 2023).

How the values were obtained:
D2 receptor = D2 receptor (Homo sapiens, UniProt P14416); parameters: method as in previously published data; conditions: at 10 µM, functional and binding studies; ref previously published data; cited from earlier work
[1] = system: pCREB and the AMPA receptor pGluR1; parameters: method as in Bruns et al. [2018]; conditions: hD1 mouse; similar to SKF82958; ref Bruns et al. [2018]; cited from earlier work
rhesus monkeys [2] = system: rhesus monkeys; parameters: method as in Bruns et al., [2018]; conditions: smaller response than SKF82958; ref Bruns et al., [2018]; cited from earlier work
adult human volunteers = system: adult human volunteers; parameters: method as in Wilbraham et al. [2021]; conditions: clinical studies; ref Wilbraham et al. [2021]; cited from earlier work
rhesus monkeys [3] = assay: Spontaneous eye blink rate, cumulative dosing; format: in vivo, rhesus monkey
Description: Eleven 5–6-year-old, male rhesus monkeys (Chengdu Ping, An Animal Breeding and Research Base, Sichuan Province, China) with an average weight of 4.83 kg were included in the study. The animals were randomly divided into three groups, DPTQ higher cumulative dose group (n = 4); DPTQ lower cumulative dose group (n = 3); and vehicle (20% Captisol (CyDex Pharmaceuticals, Inc., KS) in NaPO4 buffer) group (n = 4). The D1 agonist SKF82958 was included as a positive control; the results for this compound (not shown here) were recently published together with data for a different D1PAM (DETQ, see Bruns et al. [2018]). The D1 selective antagonist SCH39166 hydrobromide (Cat No.: 2299, Batch No.: 3A/129719) was purchased from Tocris, MN, and was prepared in Millipore pure water with the injection volume 0.2 ml/kg. The D1 antagonist was dosed 15 min before vehicle or DPTQ (n = 4 animals per group).
Spontaneous eye blinking rate was measured during observational experiments conducted in a specially constructed monkey chair (Mason et al. [2019]). A U-shaped neck plate that helped to fixate the orientation of the head was used to facilitate observation of eye blink rate response. A compact video camera (Panasonic/wv-cp480/CH) on a tripod was positioned in front of the seated monkey. Two camera images were combined by video collector (Color QUAD system) and transferred to the EthoVision software (Noldus, Leesburg, VA) on the computer for on-line viewing and recording.
Two weeks before testing, monkeys were trained daily to sit in the monkey chair for two 2-h periods with food reward. During post-training test sessions conducted between 9:00 am and 4:30 pm every day, each monkey was studied for nine consecutive 15-min components. Each 15-min block consisted of a 10-min habituation period followed by a 5-min period during which eye blinking was counted. […] Observers blind to the treatment conditions later scored each 5-min videotaped session. An eye blink was defined as a visible, rapid opening and closing of the eyelid. Two observers independently confirmed the measurement with reliability > 90%.
The effects of different D1 ligands on spontaneous eye blink rate were studied by a cumulative dosing procedure (Jutikiewicz and Bergman 2004). Active compound or vehicle (Captisol 20% w/v NaPO4 buffer) was administered after obtaining two baseline eye blink recordings. The ligand was given in random order to different monkeys of each group as described above. To study dose response and time course, incremental doses of DPTQ were administrated at the end of 15-min components of each test session.
DPTQ (free base, see Hao et al. [2019]) was supplied by Eli Lilly Company. Captisol (Lot No.: NC-04A-05034) was prepared as follows: Captisol 20% w/v NaPO4 buffer 25 mM, pH 8. The injection volume for DPTQ was 0.5 ml/kg IM. DPTQ at 0.1 mg/kg, 0.5 mg/kg, and 1 mg/kg were dosed as clear solution, while the 5 mg/kg and 10 mg/kg doses were formulated as fine suspensions. The above vehicle solution was stored at 4℃ in a refrigerator and restored to room temperature before use. When preparing DPTQ fresh daily, a portion of the vehicle (20% Captisol) was added to the compound and stirred to wet, followed by addition of the remainder of the vehicle and mixing until the solution became homogeneous. The suspension was then sonicated on an ice bath for 40 min to reduce particle size. Animals were dosed while in the chair.
Results for each monkey were expressed as the rate of eye blinking (blinks per minute) averaged over each 5-min testing epoch. The effects of vehicle and D1 PAM on eye blinking were averaged for each group of monkeys and expressed as mean ± SE. The effects of DPTQ and vehicle were analyzed with two-way ANOVA (D1 PAM and time) followed by Bonferroni post hoc test (GraphPad Prism, San Diego CA).

Chain of D2 receptor (P14416 whole entry): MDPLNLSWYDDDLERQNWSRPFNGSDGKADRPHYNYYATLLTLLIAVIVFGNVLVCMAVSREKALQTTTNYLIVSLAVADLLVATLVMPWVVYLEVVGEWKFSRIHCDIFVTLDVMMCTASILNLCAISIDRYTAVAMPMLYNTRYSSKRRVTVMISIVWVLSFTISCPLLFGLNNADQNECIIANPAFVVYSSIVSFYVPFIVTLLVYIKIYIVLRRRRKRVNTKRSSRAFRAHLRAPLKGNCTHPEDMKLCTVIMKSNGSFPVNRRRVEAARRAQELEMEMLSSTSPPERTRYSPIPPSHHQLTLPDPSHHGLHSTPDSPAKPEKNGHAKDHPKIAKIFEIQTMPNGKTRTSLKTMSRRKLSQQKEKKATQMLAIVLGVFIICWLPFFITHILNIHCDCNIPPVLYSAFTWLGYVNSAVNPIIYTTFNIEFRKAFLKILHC

Row | Compound | Activity at the D2 receptor (D2 receptor) | Brain levels of pCREB and pGluR1 [1] | Spontaneous eye blink rate (rhesus monkeys [2]) | Oral movement with tongue protrusion (adult human volunteers) | Duration of eye blink reduction/sedation (rhesus monkeys [3]; 0.03 mg/kg IM alone) | Spontaneous eye blink rate, antagonist alone (rhesus monkeys [3]; 0.03 mg/kg IM alone) | Visual observation of sedation (rhesus monkeys [3]; 0.03 mg/kg IM alone) | Effect on DPTQ-induced increase in spontaneous eye blink rate (rhesus monkeys [3]; SCH39166 pretreatment, high cumulative doses of DPTQ, n = 4/group)
1 | C[C@H]1c2cccc(C(C)(C)O)c2C[C@H](CO)N1C(=O)Cc1c(Cl)cccc1Cl [DETQ] | no activity | enhances | enhanced spontaneous eye blink rate |  |  |  |  | 
2 | C[C@H]1c2cccc(CCC(C)(C)O)c2C[C@H](CO)N1C(=O)Cc1c(Cl)cccc1Cl [mevidalen, 2-(2,6-dichlorophenyl)-1-((1S,3R)-5-(3-hydroxy-3-methylbutyl)-3-(hydroxymethyl)-1-methyl-3,4-dihydroisoquinolin-2(1H)-yl)ethan-1-one] | no activity |  |  | not reported |  |  |  | 
3 | CN1CCc2cc(Cl)c(O)cc2[C@H]2c3ccccc3CC[C@@H]21 [SCH39166, reference compound] |  |  |  |  | about 15 min | brief reduction in eye blink rate | slightly sedated | blocks
